Data set [1] is described as follows: Spectral properties of the fluorinated rhodamines (absorption, emission, quantum yield, lifetime). In kind it is physicochemical.
Source text: Extinction coefficients (of the long wavelength maximum) which are lower than ca. 8×10^4 M^−1 cm^−1 indicate the presence of the closed non-fluorescent form.
The nature of data set [2]: Photoresistance in aqueous solutions irradiated with 488 nm light (3 W/cm^2). The class given is physicochemical. The note with it: colored water solutions, several hours, 488 nm line of an Argon laser. The source says: The compounds also display an outstanding photostability when irradiated for a prolonged time. […] The initial absorption at the irradiation wavelength was the same for all solutions. […] After two hours of irradiation, compounds 14 and 15 retain more than 50% of the initial emission intensity and compound 14a has about 90% of the initial signal left.
FIG. 2. Photoresistance of selected compounds (14-17, 14a, and 16a in Table 2), and some commercially available fluorophores with the similar spectral properties (Alexa Fluor 488®, Rhodamine Green®, Oregon Green 488®, and Fluorescein) in aqueous solutions irradiated with 488 nm light (3 W/cm^2)

Data set [3] in a line: Fluorescence correlation spectroscopy (FCS) in aqueous solutions. The class given is physicochemical. The settings on record: aqueous solution, intensity range 0.1-2.0 MW/cm^2. The source says: FIG. 10. FCS curves obtained from Rh110-CO2 (left plot) and compound 17 (right plot), at low (0.1 MW/cm^2) and high (2 MW/cm^2) excitation intensity (dots: experimental data; lines: best fits).
In combination with modern highly sensitive detection technologies recently developed, the observation of a single or a few molecules has become readily available. Several techniques based on these measurements [such as the fluorescence fluctuation spectroscopy and fluorescence correlation spectroscopy (FCS)] advantageously reveal molecular properties otherwise hidden by averaging the ensemble. A common requirement for experiments involving a few or single molecules is the use of fluorescent dyes with high photostability especially at high excitation intensities of >100 kW/cm^2. For biological applications the use of water as a solvent is almost imperative. Low solubility in water is often associated with a high bleaching ratio, or lower fluorescence quantum yield in aqueous medium compared with that in organic solvents. […]
The excitation intensity of 115 kW/cm^2 (a value normally used in routinely FCS measurements) and at an excitation intensity of about an order of magnitude higher (2 MW/cm^2) have been used. […] An increase in the fraction of molecules in the triplet state can also be detected. […]

The test system of data set [4] is living mammalian cells (PtK2). Kind of data set: Membrane-permeation experiments in living cells, epifluorescence microscope. The class given is cell-based. The settings on record: 15 minutes. The method, then: FIG. 9. Membrane-permeation experiments of the presented dyes. Living mammalian cells (PtK2) were incubated for 15 minutes with a 50 μg dye/ml solution. The subcellular localization of the dye was imaged in an epifluorescence microscope. A: 46-H—CH2 CF3—H—H (16); B: 42-COOH (15); C: 23; D: 37-Me-Me-H (27); E: 42-H (14)-methylester; F: 33-H—H (18).
The most important prerequisite for fluorophores used in these labeling strategies is that sufficient amounts of it need to pass cellular membrane(s) to reach the target protein. In order to asses the permeability of the cell membrane to the fluorescent dyes described in the presented invention, living mammalian cells (PtK2) previously grown overnight on cover slips, were first subjected to either 500 μg dye/ml or 50 μg dye/ml in growth medium for 15 minutes. (The amount of dye used for labeling of SNAP-fusion proteins is below 5 μg dye/ml.) Then, the cells were washed with growth medium (without dye) for 15 minutes, and imaged using an epifluorescence microscope.

A short description of data set [5]: Ground state depletion (GSDIM) pump-probe measurements in PVA matrix. In kind it is physicochemical. The source says: In this method, “off” and “on” switching of the fluorescence is achieved by transiently shelving the fluorophores into a meta-stable dark state. Upon the return of only a few isolated single molecules to the fluorescent singlet state, positions of these single light emitting spots can be imaged on a camera and localized with high precision. Upon repeating this procedure and acquiring many pictures, a super-resolution image can be reconstructed from the localized positions. A prerequisite of this method is that >70% of the ensemble of the applied fluorescent dyes can be shelved into a dark state at a time (to ensure the detection of isolated fluorescent spots at a time in a densely labeled sample) and that the fluorophores are bright enough, i.e., that they emit enough photons while being in the singlet on-state (to ensure high precision of localization).
Switching off of the laser leads to a recovery of the fluorescence ensemble within a characteristic recovery time of 150-450 ms (Table 5), indicating the shelving into a metastable dark state. The measurements were performed in a pump-probe mode, i.e., the residual level of fluorescence was probed with I<100 W/cm^2 for 0.5 ms after strong irradiation for 10 ms with the given laser intensity in Table 5.
Furthermore, recovery of the fluorescence can be accelerated by addition of UV light, which leads to an optically-induced depopulation of the dark states. Already 2-3 kW/cm^2 of 375 nm light recovers the fluorescence within an irradiation period of 0.5 ms. […] The accelerated recovery is important for samples with low density of labels, where the addition of UV light and thus acceleration of the return from a dark state helps to accelerate image acquisition. Photostabilities of the studied fluorescent dyes under the GSDIM conditions are different: 15-50 pump-probe cycles with a pump intensity of 14-110 kW/cm^2 bleach 30-95% of the whole ensemble.

For data set [6] the following is noted: in water, low light intensities (up to 10^3 W/cm^2); cited from earlier work.

Marks after values point to notes of the source that are not given here.

Regarding `O=C(O)c1ccc2c(c1)C(=O)OC21c2ccc(NCC(F)(F)F)c(S(=O)(=O)O)c2Oc2c1ccc(NCC(F)(F)F)c2S(=O)(=O)O` [Compound 17, 5′-Carboxy-4,5-disulfo-N,N′-bis(2,2,2-trifluoroethyl)-rhodamine], in data set [1] (aqueous buffer at pH 7), the “ABSORPTION λMAX” value was found to be 501 nm; the “EMISSION λMAX” value is 524^a, 524^b nm; the ΦFL came out at 0.96; the τFL is 3.9 ns. For the same compound, in data set [1] (methanol), the ABSORPTION ε amounted to 86000 M⁻¹ cm⁻¹; the “ABSORPTION λMAX” value is listed as 511 nm; the “EMISSION λMAX” value is 524^a, 524^b nm. Also, the “change in emission on irradiation” value in data set [2] is “without any significant changes in their emission”. Further, in data set [3], the “change of diffusion time with excitation intensity (bleaching)” value is “no significant change in the diffusion time”. The “Structures stained in living cells” value in data set [4] (50 μg dye/ml) is given as “Dim cytoplasmatic stain with dots”. In addition, the “Structures stained in living cells” value in data set [4] (500 μg dye/ml) is “Bright background staining visible”. Moreover, in data set [5] (PVA matrix table), the λem stood at 524 nm and the λex turned out to be 501 nm. In data set [5] (PVA matrix, at one spot with the given power density), the “Γfl, remaining fluorescence after 5 measurement cycles” value is recorded as 40%. Besides, the “Rfl, t=0, residual fluorescence after the pump-pulse” value in data set [5] (PVA matrix, pump-pulse power density per dye 14-110 kW/cm^2) is 25%.
In the case of “carboxy rhodamine 110 [Rh110-CO2, reference compound]”, the “change of diffusion time with excitation intensity (bleaching)” value in data set [3] is listed as “shortening of the apparent diffusion characteristic time”.
In the case of `COC(=O)c1ccccc1-c1c2ccc(N)cc2[o+]c2cc(N)ccc12` [methyl ester of rhodamine 110], in data set [6], the Photobleaching quantum yields is listed as 6.6 ×10^−7.
As for `CCN=c1cc2oc3cc(NCC)c(C)cc3c(-c3ccccc3C(=O)OCC)c-2cc1C.Cl` [rhodamine 6G], in data set [6], the Photobleaching quantum yields is recorded as 12 ×10^−7.

These data come from patent publication US8735444B2, “Fluorinated rhodamines as photostable fluorescent dyes for labelling and imaging techniques” (Max-Planck-Gesellschaft zur Foerderung der Wissenschaften …, priority 2009, dated 2014).
